Experimental data as given in the supplement of paper PMC13380429.

Key:
Conditions in all cases: 72 h
Caco-2 [1] = experiment: cell viability relative to DMSO; higher = less toxic
Vero E6 [2] = experiment: as above
Calu-3 [3] = experiment: as above
HepG2 [4] = experiment: as above
U2OS [5] = experiment: as above
Caco-2 [6] = experiment: relative viability EC50 (midpoint between 100% and the lowest measured viability); higher = less toxic
Vero E6 [7] = experiment: as above
Calu-3 [8] = experiment: as above
HepG2 [9] = experiment: as above
U2OS [10] = experiment: as above
Caco-2 [11] = experiment: drug sensitivity score (DSS) for viability; higher = more toxic; extreme values may be limits of the assay
Vero E6 [12] = experiment: as above
Calu-3 [13] = experiment: as above
HepG2 [14] = experiment: as above
U2OS [15] = experiment: as above

Structure (SMILES)	cell viability (Caco-2 [1]; 1 nM) [%]	cell viability (Caco-2 [1]; 10 nM) [%]	cell viability (Caco-2 [1]; 100 nM) [%]	cell viability (Caco-2 [1]; 1000 nM) [%]	cell viability (Caco-2 [1]; 10000 nM) [%]	cell viability (Vero E6 [2]; 1 nM) [%]	cell viability (Vero E6 [2]; 10 nM) [%]	cell viability (Vero E6 [2]; 100 nM) [%]	cell viability (Vero E6 [2]; 1000 nM) [%]	cell viability (Vero E6 [2]; 10000 nM) [%]	cell viability (Calu-3 [3]; 1 nM) [%]	cell viability (Calu-3 [3]; 10 nM) [%]	cell viability (Calu-3 [3]; 100 nM) [%]	cell viability (Calu-3 [3]; 1000 nM) [%]	cell viability (Calu-3 [3]; 10000 nM) [%]	cell viability (HepG2 [4]; 1 nM) [%]	cell viability (HepG2 [4]; 10 nM) [%]	cell viability (HepG2 [4]; 100 nM) [%]	cell viability (HepG2 [4]; 1000 nM) [%]	cell viability (HepG2 [4]; 10000 nM) [%]	cell viability (U2OS [5]; 1 nM) [%]	cell viability (U2OS [5]; 10 nM) [%]	cell viability (U2OS [5]; 100 nM) [%]	cell viability (U2OS [5]; 1000 nM) [%]	cell viability (U2OS [5]; 10000 nM) [%]	relative viability EC50 (Caco-2 [6]) [µM]	relative viability EC50 (Vero E6 [7]) [µM]	relative viability EC50 (Calu-3 [8]) [µM]	relative viability EC50 (HepG2 [9]) [µM]	relative viability EC50 (U2OS [10]) [µM]	drug sensitivity score (Caco-2 [11])	drug sensitivity score (Vero E6 [12])	drug sensitivity score (Calu-3 [13])	drug sensitivity score (HepG2 [14])	drug sensitivity score (U2OS [15])
COc1cc2c(cc1OC)CN(CCc1ccc(NC(=O)c3cccc4c(=O)c5cccc(OC)c5[nH]c34)cc1)CC2 [elacridar]	97.3	91.6	92.2	95.5	88.3	97	94.8	98.7	93.5	103	98.9	94.3	99.6	101	89	99.6	107	101	96.6	97.9	96.5	99.3	99.2	100	99.8	> 10	> 10	> 10	> 10	> 10	0	0	0	0	0
O=C(Cn1ccnc1[N+](=O)[O-])NCCO [etanidazole]	100	94.1	95.9	91.5	92.7	103	104	106	101	97.7	98.8	92.4	94	98.1	107	98.7	106	92.3	101	88.8	101	97.1	102	99.1	102	> 10	> 10	> 10	> 10	> 10	0	0	0	0	0
CC[C@@H](CO)NCCN[C@@H](CC)CO [ethambutol]	99.1	92.3	97.6	102	104	92.3	98.2	90.8	99.1	102	98.9	88.7	96	90.4	96.7	93.3	108	90.3	95.2	98.7	103	98	103	96.5	99.3	> 10	> 10	> 10	> 10	> 10	0	0	0	0	0
CCNCC(O)c1cccc(O)c1 (stereo not given) [etilefrine]	92.1	105	93	99.7	104	97.1	93.6	98.3	96.4	99.6	99.2	102	98.9	102	104	95.2	87.3	89	93	104	98.9	103	98.1	98.9	95.7	> 10	> 10	> 10	> 10	> 10	0	0	0	0	0
CCOC(=O)[C@@]1(CCCCCCOc2ccc(Cl)cc2)CO1 [etomoxir]	92.6	97.6	98.2	98	85.6	113	106	110	104	98.1	106	114	98.2	117	110	115	106	101	108	91.7	105	102	104	103	97.7	> 10	> 10	> 10	> 10	> 10	0.4	0	0	0	0
